Laboratory results taken from US20240124422A1, “MUTANT PI3K-ALPHA INHIBITORS AND THEIR USE AS PHARMACEUTICALS” (Prelude Therapeutics Incorporated, priority 2022, published 2024).
pIC50: −log10 of the molar value.

tested on: phosphorylation of AKT on Ser473 as a readout of the PI3K pathway in T-47D (heterozygous PIK3CA H1047R) cells; assay: PI3K pathway activation assay, pAKT Ser473 HTRF, T-47D cells; type: cell-based; conditions: Homo sapiens, T47D, 2 h, two hours of treatment
Experimental: The inhibitory activity of compounds was evaluated by measuring phosphorylation of AKT on Ser473 as a readout of the PI3K pathway using HTRF (CisBio catalog number: 64AKSPE). These studies were conducted in the T-47D (heterozygous PIK3CA H1047R) and SKBR3 (PIK3CA WT) cell lines. Cells were maintained in a 37° C. incubator at 5% CO2 in the following media: T-47D: RPMI 1640, ATCC© Modification (Gibco, A10491-01) supplemented with 10% v/v FBS (Gibco, 26140-079), 1% penicillin streptomycin (Gibco, 15140-122), and 7.4 ug/mL insulin (MilliporeSigma, I9278); SKBR3: McCoy's 5a (Modified) Medium (Gibco, 16600-082) supplemented with 10% v/v FBS (Gibco, 26140-079). Cells were seeded in 384-well plates at a density of 4,000 cells/well. Compounds dissolved in DMSO were added using a digital dispense (D300E, Tecan) 10-point serial dilution. After two hours of treatment, cells were lysed for thirty minutes and then incubated with detection reagents per HTRF kit material and manufacturer's instructions. Fluorescence signal was measured with a multimode plate reader (Envision 2105, Perkin Elmer). Fluorescent signal was normalized to background and DMSO controls to obtain percent inhibition/activity for each compound.

| SMILES | pIC50 |
| --- | --- |
| Cc1cc(C(C)Nc2cc(F)ccc2C(=O)O)c2nc(N3Cc4ccccc4C3)n(C)c(=O)c2c1 (stereo not drawn) [Example 32, 4-fluoro-2-((1-(2-(isoindolin-2-yl)-3,6-dimethyl-4-oxo-3,4-dihydroquinazolin-8-yl)ethyl)amino)benzoic acid] | > 6.30 |
| Cc1cc(C(Nc2ccccc2C(=O)O)C(F)F)c2nc(N3CC4CC4C3)n(C)c(=O)c2c1 (stereo not drawn) [Example 96, 2-((1-(2-(3-azabicyclo[3.1.0]hexan-3-yl)-3,6-dimethyl-4-oxo-3,4-dihydro-quinazolin-8-yl)-2,2-difluoroethyl)amino)benzoic acid] | 5.00 to 6.30 |
| COc1ccc(NC(C)c2cc(C)cc3c(=O)n(C)c(N4CC5CC5C4)nc23)c(C(=O)O)c1 (stereo not drawn) [Example 122, 2-[1-[2-(3-Azabicyclo[3.1.0]hexan-3-yl)-3,6-dimethyl-4-oxoquinazolin-8-yl]ethylamino]-5-methoxybenzoic acid] | 5.00 to 6.30 |
| Cc1cc(C(C)Nc2ccccc2C(=O)O)c2nc(N3CC4CC(C4)C3)n(C)c(=O)c2c1 (stereo not drawn) [Example 116, 2-((1-(2-(3-Azabicyclo[3.1.1]heptan-3-yl)-3,6-dimethyl-4-oxo-3,4-dihydroquinazolin-8-yl)ethyl)amino)benzoic acid] | > 6.30 |
| Cc1cc(C(C)Nc2ccccc2C(=O)O)c2nc(N3CCC(NC(=O)OC(C)(C)C)C3)n(C)c(=O)c2c1 (stereo not drawn) [Example 110, 2-[1-[3,6-dimethyl-2-[3-[(2-methylpropan-2-yl)oxycarbonylamino]pyrrolidin-1-yl]-4-oxoquinazolin-8-yl]ethylamino]benzoic acid] | 5.00 to 6.30 |
| Cc1cc(C(C)Nc2ccc(Cl)cc2C(=O)O)c2nc(N3Cc4ccccc4C3)n(C)c(=O)c2c1 (stereo not drawn) [Example 33, 5-chloro-2-((1-(2-(isoindolin-2-yl)-3,6-dimethyl-4-oxo-3,4-dihydroquinazolin-8-yl)ethyl)amino)benzoic acid] | 5.00 to 6.30 |
| Cc1cc(C(C)Nc2ccccc2C(=O)O)c2nc(N3C[C@@H]4[C@H](C3)[C@H]4C(=O)N(C)C(C)C)n(C)c(=O)c2c1 (stereo partly drawn) [Example 81, 2-((1-(2-((1R,5S,6R)-6-(Isopropyl(methyl)carbamoyl)-3-azabicyclo[3.1.0]hexan-3-yl)-3,6-dimethyl-4-oxo-3,4-dihydroquinazolin-8-yl)ethyl)amino)benzoic acid] | > 6.30 |
| Cc1cc(C(C)Nc2ccccc2C(=O)O)c2nc(N3CCC(c4ccccc4)C3)n(C)c(=O)c2c1 (single isomer, unassigned) [Example 52, 2-[1-[3,6-dimethyl-4-oxo-2-(3-phenylpyrrolidin-1-yl)quinazolin-8-yl]ethylamino]benzoic acid] | 5.00 to 6.30 |
| Cc1cc(C(C)Nc2ccccc2C(=O)O)c2nc(N3CCC(C#N)CC3)n(C)c(=O)c2c1 (stereo not drawn) [Example 44, 2-((1-(2-(4-cyanopiperidin-1-yl)-3,6-dimethyl-4-oxo-3,4-dihydroquinazolin-8-yl)ethyl)amino)benzoic acid] | 5.00 to 6.30 |
| CC(Nc1ccccc1C(=O)O)c1cc(C(F)(F)F)cc2c(=O)n(C)c(N3CC4CC4C3)nc12 (stereo not drawn) [Example 16, 2-((1-(2-(3-azabicyclo[3.1.0]hexan-3-yl)-3-methyl-4-oxo-6-(trifluoromethyl)-3,4-dihydroquinazolin-8-yl)ethyl)amino)benzoic acid] | 5.00 to 6.30 |
| Cc1cc(C(C)Nc2ccccc2C(=O)O)c2nc(N3CC4CC4C3)n(CC(F)(F)F)c(=O)c2c1 (stereo not drawn) [Example 103, 2-((1-(2-(3-Azabicyclo[3.1.0]hexan-3-yl)-6-methyl-4-oxo-3-(2,2,2-trifluoroethyl)-3,4-dihydroquinazolin-8-yl)ethyl)amino)benzoic acid] | 5.00 to 6.30 |
| Cc1cc(C(C)Nc2ccccc2C(=O)O)c2nc(N3CCC(O)CC3)n(C)c(=O)c2c1 (stereo not drawn) [Example 57, 2-((1-(2-(4-hydroxypiperidin-1-yl)-3,6-dimethyl-4-oxo-3,4-dihydroquinazolin-8-yl)ethyl)amino)benzoic acid] | 5.00 to 6.30 |
| Cc1cc(C(C)Nc2ccccc2C(=O)O)c2nc(N3CCC4(CC3)CC(NC(=O)OC(C)(C)C)C4)n(C)c(=O)c2c1 (stereo not drawn) [Example 107, 2-[1-[3,6-dimethyl-2-[2-[(2-methylpropan-2-yl)oxycarbonylamino]-7-azaspiro[3.5]nonan-7-yl]-4-oxoquinazolin-8-yl]ethylamino]benzoic acid] | 5.00 to 6.30 |
| Cc1cc(C(C)Nc2ncccc2C(=O)O)c2nc(N3Cc4ccccc4C3)n(C)c(=O)c2c1 (stereo not drawn) [Example 36, 2-((1-(2-(isoindolin-2-yl)-3,6-dimethyl-4-oxo-3,4-dihydroquinazolin-8-yl)ethyl)amino)nicotinic acid] | 5.00 to 6.30 |
| Cc1cc(C(C)Nc2ccccc2C(=O)O)c2nc(N3CC4CC4C3)n(C)c(=O)c2c1F (single isomer, unassigned) [Example 95, 2-((1-(2-(3-Azabicyclo[3.1.0]hexan-3-yl)-5-fluoro-3,6-dimethyl-4-oxo-3,4-dihydroquinazolin-8-yl)ethyl)amino)benzoic acid] | > 6.30 |
| CC(Nc1ccccc1C(=O)O)c1cc(C(F)F)cc2c(=O)n(C)c(N3CC4CC4C3)nc12 (stereo not drawn) [Example 79, 2-((1-(2-(3-Azabicyclo[3.1.0]hexan-3-yl)-6-(difluoromethyl)-3-methyl-4-oxo-3,4-dihydroquinazolin-8-yl)ethyl)amino)benzoic acid] | 5.00 to 6.30 |
| Cc1cc(C(C)Nc2ccc(C(F)(F)F)cc2C(=O)O)c2nc(N3Cc4ccccc4C3)n(C)c(=O)c2c1 (stereo not drawn) [Example 30, 2-((1-(2-(isoindolin-2-yl)-3,6-dimethyl-4-oxo-3,4-dihydroquinazolin-8-yl)ethyl)amino)-5-(trifluoromethyl)benzoic acid] | 5.00 to 6.30 |
| Cc1cc(C(C)Nc2ccccc2C(=O)O)c2nc(N3CCCC3(C)C)n(C)c(=O)c2c1 (stereo not drawn) [Example 115, 2-((1-(2-(2,2-dimethylpyrrolidin-1-yl)-3,6-dimethyl-4-oxo-3,4-dihydroquinazolin-8-yl)ethyl)amino)benzoic acid] | > 6.30 |
| COc1cc(C(C)Nc2ccccc2C(=O)O)c2nc(N3CC4CC4C3)n(C)c(=O)c2c1 (stereo not drawn) [Example 77, 2-((1-(2-(3-azabicyclo[3.1.0]hexan-3-yl)-6-methoxy-3-methyl-4-oxo-3,4-dihydroquinazolin-8-yl)ethyl)amino)benzoic acid] | 5.00 to 6.30 |
| Cc1cc(C(C)Nc2ccccc2C(O)C(F)(F)F)c2nc(N3Cc4ccccc4C3)n(C)c(=O)c2c1 (stereo not drawn) [Example 12, 2-(isoindolin-2-yl)-3,6-dimethyl-8-(1-((2-(2,2,2-trifluoro-1-hydroxyethyl)phenyl)amino)ethyl)quinazolin-4(3H)-one] | 5.00 to 6.30 |
| C=CC(=O)Nc1c(C)cc(C(C)Nc2ccccc2C(=O)O)c2nc(N3CC4CC4C3)n(C)c(=O)c12 (stereo not drawn) [Example 38, 2-((1-(5-acrylamido-2-(3-azabicyclo[3.1.0]hexan-3-yl)-3,6-dimethyl-4-oxo-3,4-dihydroquinazolin-8-yl)ethyl)amino)benzoic acid] | 5.00 to 6.30 |

same assay, conditions: two hours of treatment, read-out: T47D pAKT IC50

| SMILES | pIC50 |
| --- | --- |
| CON(C)C(=O)C1[C@H]2CN(c3nc4c(C(C)Nc5ccccc5C(=O)O)cc(C)cc4c(=O)n3C)C[C@@H]12 (stereo partly drawn) [Example 83, 2-((1-(2-((1R,5S,6R)-6-(Methoxy(methyl)carbamoyl)-3-azabicyclo[3.1.0]hexan-3-yl)-3,6-dimethyl-4-oxo-3,4-dihydroquinazolin-8-yl)ethyl)amino)benzoic acid] | > 6.30 |
| Cc1cc(C(C)Nc2ccccc2C(=O)O)c2nc(N3CC4CCC3C4)n(C)c(=O)c2c1 (single isomer, unassigned) [Example 101, 2-((1-(2-(2-Azabicyclo[2.2.1]heptan-2-yl)-3,6-dimethyl-4-oxo-3,4-dihydro-quinazolin-8-yl)ethyl)amino)benzoic acid] | 5.00 to 6.30 |
| COc1ccc(OC(=O)NC2[C@H]3CN(c4nc5c(C(C)Nc6ccccc6C(=O)O)cc(C)cc5c(=O)n4C)C[C@@H]23)cc1 (stereo partly drawn) [Example 62, 2-((1-(2-((1R,5S,6s)-6-(((4-methoxyphenoxy)carbonyl)amino)-3-azabicyclo[3.1.0]hexan-3-yl)-3,6-dimethyl-4-oxo-3,4-dihydroquinazolin-8-yl)ethyl)amino)benzoic acid] | 5.00 to 6.30 |
| Cc1cc(C(C)Nc2ccccc2C(=O)O)c2nc(N3CCC(C)(C)CC3)n(C)c(=O)c2c1 (stereo not drawn) [Example 3, 2-((1-(2-(4,4-dimethylpiperidin-1-yl)-3,6-dimethyl-4-oxo-3,4-dihydroquinazolin-8-yl)ethyl)amino)benzoic acid] | 5.00 to 6.30 |
| Cc1cc(C(C)Nc2ccccc2C(=O)O)c2nc(N3C[C@@H]4C(NC(=O)OC5CC5)[C@@H]4C3)n(C)c(=O)c2c1 (stereo partly drawn) [Example 63, 2-((1-(2-((1R,5S,6s)-6-((cyclopropoxycarbonyl)amino)-3-azabicyclo[3.1.0]hexan-3-yl)-3,6-dimethyl-4-oxo-3,4-dihydroquinazolin-8-yl)ethyl)amino)benzoic acid] | 5.00 to 6.30 |
| Cc1cc(C(C)Nc2ccccc2C(=O)O)c2nc(N3C[C@@H]4C(C(=O)N(C)c5cccnc5)[C@@H]4C3)n(C)c(=O)c2c1 (stereo partly drawn) [Example 88, 2-((1-(3,6-Dimethyl-2-((1R,5S,6R)-6-(methyl(pyridin-3-yl)carbamoyl)-3-azabicyclo[3.1.0]hexan-3-yl)-4-oxo-3,4-dihydroquinazolin-8-yl)ethyl)amino)benzoic acid] | 5.00 to 6.30 |
